Patent US12655174B2, “Adenosine A3 receptor agonists, preparation methods and uses thereof” (ZHEJIANG VIMGREEN PHARMACEUTICALS, LTD., priority 2020, dated 2026)

What was measured:
ADORA3 receptor = biological target: T1, ADORA3 receptor (Homo sapiens, UniProt P0DMS8); assay: Agonistic effect on adenosine A3 receptor by FLIPR assay (calcium flux assay); type: cell-based; details: agonist mode
T1 sequence (P0DMS8 1-318): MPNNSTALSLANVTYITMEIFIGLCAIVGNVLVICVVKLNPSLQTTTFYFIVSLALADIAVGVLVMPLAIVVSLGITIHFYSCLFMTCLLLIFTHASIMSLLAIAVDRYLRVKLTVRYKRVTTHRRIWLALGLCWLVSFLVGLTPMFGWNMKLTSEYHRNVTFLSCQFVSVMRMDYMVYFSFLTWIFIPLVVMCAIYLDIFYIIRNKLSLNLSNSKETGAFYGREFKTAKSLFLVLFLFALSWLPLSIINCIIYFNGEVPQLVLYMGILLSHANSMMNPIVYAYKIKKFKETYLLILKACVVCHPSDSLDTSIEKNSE
Experimental: Example 27: Agonistic Effect of Compound on Adenosine A3 Receptor by FLIPR Assay (Calcium Flux Assay)
First Day: Cell Inoculation
• 1) With regard to ADORA3 receptor, cultured cells were used for inoculation: the culture medium was aspirated and the cells were washed twice with 10 mL of DPBS. 2 mL of 0.05% EDTA-trypsin was added and the cells were incubated at 37° C. for 1 minute. Then 10 mL of the culture medium was added to stop the digestion and the cell suspension was transferred to a 50-mL tapered tube. • 2) The 50-mL tapered tube containing the various cells was centrifuged at 300 g for 5 minutes. • 3) A supernatant was aspirated and no cells should be aspirated. • 4) The cell precipitate was resuspended in 6-8 mL of the culture medium, and then 0.5 mL of the cells were taken out for cell counting by using a Vi-cell XR cell viability analyzer. • 5) The cell suspension was diluted to 1×10^6 cells/mL (20 μL of 20,000 cells per well) in the culture medium and the cells were inoculated into a cell plate (384-well Poly-D-lysine protein-coated plate, Greiner-781946). • 6) The plate was placed in a 37° C./5% CO2 incubator for 16-20 hours. Second Day: • 1) Preparation of 2×Fluo-4 Direct™ uptaking dye • a. Preparation of probenecid solution • 1 mL of FLIPR assay buffer was added to 77 mg of probenecid (provided by Fluo-4 Direct™ calcium assay kit) to be prepared into 250 mM of a probenecid solution. The fresh probenecid solution was used daily. • b. 2×(8 μM) Fluo-4 Direct™ loading dye (per 10 mL)
A vial of the Fluo-4 Direct™ crystal was thawed and then 10 mL of the FLTPR analytical buffer was added to the vial. Then 0.2 mL of 250 mM of a probe solution was added to every 10 mL Fluo-4 Direct™ crystal to a final assay concentration of 2.5 mM. The solution was vortexed and stood for >5 min at a dark place. 2×Fluo-4 Direct™ uptaking dye was freshly prepared daily. • 2) Compound preparation • a. Preparation of compound plate: all reference and test compounds were serially diluted 4-fold in 10 points by using an Echo liquid processor and then 900 nL of the diluted compounds were transferred to a compound plate. • b. 30 μL FLIPR analytical buffer was added to the compound plate and the plate was centrifuged at 300 g for 1 minute. • 3) FLIPR analysis • a. With regard to ADORA3 receptor: firstly, the cell plate was taken out from a culture box. The culture medium was then aspirated and 20 μL of the FLIPR analytical buffer was added. The cell plate was placed in an incubator for 45 minutes and at a room temperature for 15 minutes. • b. To run an experimental solution on […], 10 μL of the FLIPR analytical buffer was transferred from the compound plate to a cell plate, and then the fluorescent signal was read. Then 10 μL of a compound solution was transferred from the compound plate to the cell plate and the fluorescence signal was read. “Max−min” was calculated from Reader 91 to an allowed maximum value. • c. With regard to agonist: activation %=(RLU−LC)/(HC−LC)*100, • wherein RLU=relative light unit, allowed maximum signal was 91; HC=average signal of high concentration agonist; and LC=mean signal of DMSO well. • d. Data were fitted to a model “log (agonist) versus response-variable slope” by using GraphPad Prism 5 to determine an EC50 value. • e. […] 2. Test Result

[1] = Pharmacokinetic test of compound in SD rat; type: in vivo; details: SD rats, intragastric administration (IG), cassette dosing
Experimental: Example 28: Pharmacokinetic Test of Compound in SD Rat
The animal species used in this experiment were SD rats. There were 3 animals per group. The rats were dosed in cassette format, i.e., multiple (1-6) different compounds were dosed simultaneously to the same group of the SD rats. The vehicle used for the drug was 5% DMSO+5% Solutl+90% ([…] methylcellulose M450), and the administration route was intragastric administration (IG).

[2] = biological target: T2, ADORA3 receptor (CHO cells stably expressing ADORA3 receptor) (Homo sapiens, UniProt P0DMS8); assay: Effect of compound on intracellular cAMP level by adenosine A3 receptor agonism; type: cell-based; details: forskolin-stimulated
T2 construct: expressed in transfected cells
T2 sequence (P0DMS8 1-318): T1 sequence (P0DMS8 1-318)
Experimental: Example 26: Test the Effect of Compound on Intracellular cAMP Level by Adenosine A3 Receptor Agonism
• 1) 1×HBSS with Ca2+ and Mg2+ (14 mL), 1 M HEPES (75 μL), a 7.5% (w/v) BSA stabilizer (pH 7.4, 200 μL), and 20 mM rolipram (7.5 μL) were respectively prepared as cAMP assay buffer. • 2) Preparation of compound source plate • a. […] A 10 mM stock solution was subjected to a 3-fold serial dilution by 100% (v/v) DMSO to prepare 10 doses of the test substance. • c. 1 mM of Forskolin was prepared by 100% (v/v) DMSO. • 3) Preparation of test plate • a. Prior to the assay, CHO cells stably expressing ADORA3 receptor were harvested and the cells were counted by using a Countess cell counter. […] The cells were seeded at a density of 2,000 cells/well in a 384-well plate. • 4) 10 nL/well of the serially diluted compound and 10 nL/well of 1 mM of forskolin were transferred to each well with ADORA3 receptor expressing cells by using Echo550. • 5) A cell plate was centrifuged at 1,000 rpm for 1 minute and then stirred at 600 rpm for 2 minutes. The plate was incubated at 37° C. • 6) An Eu-cAMP tracer working solution and an Ulight-anti-cAMP working solution were prepared according to the following table.
• 7) 5 μl/well of the Eu-cAMP tracer working solution and 5 μl/well of the Ulight-anti-cAMP working solution were added to each well of the plate. […] 2. Data Analysis • 1) An activation percentage was calculated by using the following formula:
[formula] • % Activation: activation percentage • Ratiocpd: ratio of emissivity of test compound • RatioLow control: ratio of low emissivity • RatioHigh control: ratio of high emissivity • 2) EC50 was calculated by an XLfit using the Hill equation to fit the activity percentage and a log of a compound concentration. 3. Test Result

Question: What does the source list for `CCNC(=O)[C@H]1O[C@@H](n2cnc3c(NC)nc(-c4cncc(F)c4)nc32)[C@H](O)[C@@H]1O` [compound 43, (2S,3S,4R,5R)-N-ethyl-5-(2-(5-fluoropyridin-3-yl)-6-(methylamino)-9H-purin-9-yl)-3,4-dihydroxyl-tetrahydrofuran-2-formamide]?
Answer: EC50 (ADORA3 receptor): 11.4 nM; AUC_D [1]: 87.99 kg·ng·h/mL/mg

Question: For `CCNC(=O)[C@H]1O[C@@H](n2cnc3c(NC)nc(-c4cncc(OC)c4)nc32)[C@H](O)[C@@H]1O` [compound 73, (2S,3S,4R,5R)-N-ethyl-3,4-dihydroxyl-5-(2-(5-methoxypyridin-3-yl)-6-(methylamino)-9H-purin-9-yl)tetrahydrofuran-2-carboxamide], which EC50 (ADORA3 receptor) is on record?
Answer: 29.6 nM

Question: For `CNC(=O)[C@H]1OC(n2cnc3c(NCc4cc(C)cc(C)c4)nc(-c4cccnc4)nc32)[C@H](O)[C@@H]1O` (stereo in doubt) [compound 297, (2S,3S,4R,5S)-5-(6-((3,5-dimethylbenzyl)amino)-2-(pyridin-3-yl)-9H-purin-9-yl)-3,4-dihydroxyl-N-methyltetrahydrofuran-2-carboxamide], which EC50 (ADORA3 receptor) is on record?
Answer: 12.9 nM

Question: What about the “AUC_D” value [1] of the same compound?
Answer: 2349.41 kg·ng·h/mL/mg

Question: With `CCNC(=O)[C@H]1O[C@@H](n2cnc3c(NC)nc(-c4cccnc4)nc32)[C@H](O)[C@@H]1O` [compound 42, (2S,3S,4R,5R)-N-ethyl-3,4-dihydroxyl-5-(6-(methylamino)-2-(pyridin-3-yl)-9H-purin-9-yl)-tetrahydrofuran-2-formamide] as the compound, how does the EC50 (ADORA3 receptor) read?
Answer: 12.7 nM

Question: For `[2H]C([2H])([2H])NC(=O)[C@H]1O[C@@H](n2cnc3c(NCc4ccccc4)nc(-c4ccsc4)nc32)[C@H](O)[C@@H]1O` [compound 24, (2S,3S,4R,5R)-5-(6-(benzylamino)-2-(thiophen-3-yl)-9H-purin-9-yl)-3,4-dihydroxyl-N-(methyl-d3)-tetrahydrofuran-2-formamide], which EC50 [2] is on record?
Answer: 5.77 nM

Question: What about the “AUC_D” value [1] of the same compound?
Answer: 86.00 kg·ng·h/mL/mg

Question: Which results are given for `CNC(=O)[C@H]1OC(n2cnc3c(NCc4ccccn4)nc(-c4cncc(OC)c4)nc32)[C@H](O)[C@@H]1O` (stereo in doubt) [compound 307, (2S,3S,4R,5S)-3,4-dihydroxyl-5-(2-(5-methoxypyridin-3-yl)-6-((pyridin-2-ylmethyl)amino)-9H-purin-9-yl)-N-methyltetrahydrofuran-2-carboxamide]?
Answer: EC50 [2]: 9.4 nM; AUC_D [1]: 173.85 kg·ng·h/mL/mg

Question: Which EC50 [2] does the source give for `CNC(=O)[C@H]1O[C@@H](n2cnc3c(NCc4cccc(Cl)n4)nc(-c4cncc(OC)c4)nc32)[C@H](O)[C@@H]1O` [compound 230, (2S,3S,4R,5R)-5-(6-(((6-chloropyridin-2-yl)methyl)amino)-2-(5-methoxypyridin-3-ly)-9H-purin-9-yl)-3,4-dihydroxyl-N-methyltetrahydrofuran-2-carboxamide] here?
Answer: 8.68 nM

Question: What about the “AUC_D” value [1] of the same compound?
Answer: 212.91 kg·ng·h/mL/mg

Question: Which results are given for `[2H]C([2H])([2H])NC(=O)[C@H]1O[C@@H](n2cnc3c(NCc4cccs4)nc(-c4cncc(Cl)c4)nc32)[C@H](O)[C@@H]1O` [compound 254, (2S,3S,4R,5R)-5-(2-(5-chloropyridin-3-yl)-6-((thiophen-2-ylmethyl)amino)-9H-purin-9-yl)-3,4-dihydroxyl-N-(methyl-d3)tetrahydrofuran-2-carboxamide]?
Answer: EC50 [2]: 9.51 nM; AUC_D [1]: 703.00 kg·ng·h/mL/mg

Question: For `CNC(=O)[C@H]1O[C@H](n2cnc3c(NCc4cccc(C)c4)nc(-c4cncc(OC)c4)nc32)[C@H](O)[C@@H]1O` [compound 300], which EC50 [2] is on record?
Answer: 2.13 nM

Question: What about the “AUC_D” value [1] of the same compound?
Answer: 729.20 kg·ng·h/mL/mg

Question: Which EC50 [2] does the source give for `CCOc1cncc(-c2nc(NCc3cccc(C)c3)c3ncn(C4O[C@H](C(=O)NC)[C@@H](O)[C@H]4O)c3n2)c1` (stereo in doubt) [compound 301, (2S,3S,4R,5S)-5-(2-(5-ethoxypyridin-3-yl)-6-((3-methylbenzyl)amino)-9H-purin-9-yl)-3,4-dihydroxyl-N-methyltetrahydrofuran-2-carboxamide] here?
Answer: 3.78 nM

Question: What about the “AUC_D” value [1] of the same compound?
Answer: 744.06 kg·ng·h/mL/mg

Question: Which EC50 [2] does the source give for `CNC(=O)[C@H]1O[C@@H](n2cnc3c(NCc4cc(Cl)ccn4)nc(-c4cncc(OC)c4)nc32)[C@H](O)[C@@H]1O` [compound 185, (2S,3S,4R,5R)-5-(6-((4-chloropyridin-2-yl)methylamino)-2-(5-methoxypyridin-3-yl)-9H-purin-9-yl)-3,4-dihydroxyl-N-methyl-tetrahydrofuran-2-formamide] here?
Answer: < 0.51 nM

Question: What about the “AUC_D” value [1] of the same compound?
Answer: 589.63 kg·ng·h/mL/mg

Question: Which results are given for `CNC(=O)[C@H]1O[C@@H](n2cnc3c(NCc4cccc(C(F)(F)F)c4)nc(-c4cncc(Cl)c4)nc32)[C@H](O)[C@@H]1O` [compound 179, (2S,3S,4R,5R)-5-(6-(3-(trifluoromethyl)benzylamino)-2-(5-chloropyridin-3-yl)-9H-purin-9-yl)-3,4-dihydroxyl-N-methyl-tetrahydrofuran-2-formamide]?
Answer: EC50 [2]: 9.44 nM; AUC_D [1]: 273.37 kg·ng·h/mL/mg

Question: Which EC50 (ADORA3 receptor) does the source give for `CCNC(=O)[C@H]1O[C@@H](n2cnc3c(NC)nc(-c4cncc(Cl)c4)nc32)[C@H](O)[C@@H]1O` [compound 90, (2S,3S,4R,5R)-5-(2-(5-chloropyridin-3-yl)-6-(methylamino)-9H-purin-9-yl)-N-ethyl-3,4-dihydroxyltetrahydrofuran-2-carboxamide] here?
Answer: 25.2 nM

Question: Which results are given for `CNC(=O)[C@H]1O[C@@H](n2cnc3c(NCc4cccc(C)c4)nc(-c4cncc(F)c4)nc32)[C@H](O)[C@@H]1O` [compound 161, (2S,3S,4R,5R)-5-(2-(5-fluoropyridin-3-yl)-6-((3-methylbenzyl)amino)-9H-purin-9-yl)-3,4-dihydroxyl-N-methyltetrahydrofuran-2-carboxamide]?
Answer: EC50 [2]: 0.74 nM; AUC_D [1]: 994.72 kg·ng·h/mL/mg
